In series [1] the test system is Trypanosoma brucei brucei. The series can be described thus: Antitrypanosomal activity against Trypanosoma brucei brucei 427 trypomastigotes assessed as reduction in parasite growth incubated for 48 hrs by resazurin dye based fluorescence assay. The conditions noted are these: Trypanosoma brucei, 427, 48 h. The class given is functional, organism-based.
Series [2] in a line: Cytotoxicity against human hTERT-BJ cells assessed as cell viability at 1 uM incubated for 48 hrs by MTT based colorimetric assay. The class given is toxicity. As to conditions: read-out: Activity.
Series [3] can be described thus: Cytotoxicity against human hTERT-BJ cells assessed as cell viability at 5 uM incubated for 48 hrs by MTT based colorimetric assay. The class given is toxicity. As to conditions: read-out: Activity.
Series [4] can be described thus: Cytotoxicity against human hTERT-BJ cells assessed as cell viability at 10 uM incubated for 48 hrs by MTT based colorimetric assay. The class given is toxicity. The conditions noted are these: read-out: Activity.
The subject of series [5] is hTERT-BJ. The series can be described thus: Cytotoxicity against human hTERT-BJ cells assessed as reduction in cell viability at 10 uM incubated for 48 hrs by MTT based colorimetric assay. The class given is toxicity.
Series [6] is described as follows: Cytotoxicity against African green monkey Vero cells assessed as cell viability at 1 uM incubated for 48 hrs by MTT based colorimetric assay. The class given is toxicity. As to conditions: chlorocebus sabaeus, read-out: Activity.
Series [7] in a line: Cytotoxicity against African green monkey Vero cells assessed as cell viability at 5 uM incubated for 48 hrs by MTT based colorimetric assay. The class given is toxicity. As to conditions: chlorocebus sabaeus, read-out: Activity.
The nature of series [8]: Cytotoxicity against African green monkey Vero cells assessed as cell viability at 10 uM incubated for 48 hrs by MTT based colorimetric assay. The class given is toxicity. As to conditions: chlorocebus sabaeus, read-out: Activity.
Series [9] can be described thus: Cytotoxicity against African green monkey Vero cells assessed as reduction in cell viability incubated for 48 hrs by MTT based colorimetric assay. The class given is toxicity. As to conditions: chlorocebus sabaeus.
Series [10] is described as follows: Selectivity index, ratio of CC50 for African green monkey Vero cells to IC50 for Antitrypanosomal activity against Trypanosoma brucei brucei 427 trypomastigotes. The class given is toxicity. The conditions noted are these: read-out: Ratio CC50/IC50.

Molecules are shown by their SMILES. Some results are limits rather than exact numbers.

In the case of `O=C1/C(=C/c2ccc([N+](=O)[O-])o2)CCc2ccccc21`, in series [1], the IC50 was 360 nM.

`CC(=O)c1ccc2c(c1)c(=O)c(C(=O)NCCOCCO)cn2Cc1ccc(Br)cc1`: the half-maximal inhibitory concentration (IC50) in series [1] worked out at 7140 nM.

With `CCOC(=O)c1cn(CC)c2ccc(C(=O)/C=C/c3ccc([N+](=O)[O-])o3)cc2c1=O`, the IC50 in [1] was found to be 600 nM. Regarding `CCOC(=O)c1cn(CC(N)=O)c2ccc(C(=O)/C=C/c3ccc([N+](=O)[O-])o3)cc2c1=O`, the concentration for half-maximal inhibition (IC50) in series [1] stood at 15300 nM. On the same count and under the same terms, in the case of `COCCNC(=O)c1cn(Cc2ccccc2)c2ccc(C(=O)/C=C/c3ccc([N+](=O)[O-])o3)cc2c1=O` it was 470 nM. As to `Cc1ccc(Cn2cc(C(=O)NCCOCCO)c(=O)c3cc(C(=O)/C=C/c4ccc([N+](=O)[O-])o4)ccc32)cc1`, the IC50 in [1] is 80 nM. Further, the values for the viability at 48 h, 1 µM in series [2] and in series [6] were 118% and 105%, respectively. Further, the viability at 48 h, 5 µM stood at 88% in series [3] and 20% in series [7]. Besides, the viability at 48 h, 10 µM is 66% in [4] and 6% in [8]. For the same molecule, the Activity in series [5] is recorded as less than 25%. Further, the CC50 at 48 h in series [9] amounted to 3400 nM. Moreover, the selectivity ratio in series [10] is 42.5.

As for `N=C(N)c1ccc(OCCCCCOc2ccc(C(=N)N)cc2)cc1` [PENTAMIDINE], the half-maximal inhibitory concentration (IC50) in series [1] came out at 10 nM. The same measure, in the same setting: in the case of `CCOC(=O)c1cn(Cc2ccccc2)c2ccc(C(=O)/C=C/c3ccc([N+](=O)[O-])o3)cc2c1=O` it was 500 nM. Still for that read-out and setting: in the case of `COCCNC(=O)c1cn(Cc2ccc(C)cc2)c2ccc(C(=O)/C=C/c3ccc([N+](=O)[O-])o3)cc2c1=O` it was 120 nM; in that of `COCCNC(=O)c1c[nH]c2ccc(C(=O)/C=C/c3ccc([N+](=O)[O-])o3)cc2c1=O`, 3430 nM; in that of `Cc1cccc(Cn2cc(C(=O)NCCN3CCNCC3)c(=O)c3cc(C(=O)/C=C/c4ccc([N+](=O)[O-])o4)ccc32)c1`, 2410 nM. Same read-out and setting: in the case of `CCOC(=O)c1cn(CCO)c2ccc(C(=O)/C=C/c3ccc([N+](=O)[O-])o3)cc2c1=O` it was 2090 nM; in that of `O=C1/C(=C/c2ccc([N+](=O)[O-])o2)COc2ccccc21`, 510 nM.

As for `CCOC(=O)c1cn(CCO)c2ccc(C(=O)/C=C/c3ccc([N+](=O)[O-])s3)cc2c1=O`, the half-inhibitory concentration (IC50) in [1] came to 380 nM. The same measure, in the same setting: in the case of `CCOC(=O)c1cn(CC)c2ccc(C(=O)/C=C/c3ccc([N+](=O)[O-])s3)cc2c1=O` it was 970 nM; in that of `O=C(/C=C/c1ccc([N+](=O)[O-])o1)c1ccc2c(c1)c(=O)c(C(=O)NCCOCCO)cn2Cc1ccccc1`, 280 nM. For `CCOC(=O)c1cn(CC)c2ccc(C(=O)/C=C/c3ccc(Br)o3)cc2c1=O`, the IC50 in [1] amounted to 1310 nM.

The values are drawn from ChEMBL document CHEMBL5143512, “Synthesis and in vitro antitrypanosomal evaluation of novel 6-heteroarylidene-substituted quinolone derivatives” (Eur J Med Chem, 2022).
